Results taken from a melting point compilation (Tetko et al.; mined from patent text by program, amines drawn as free bases though some values may be those of a salt).

melting point | SMILES
137 to 138 °C | CN(C)C(=O)N(NC(=O)C(F)(F)F)c1ccc(Cl)cc1Cl
64 to 65 °C | CS(=O)(=O)c1ccc(-n2nc(C(F)(F)F)cc2-c2ccc(Br)cc2)cc1F
75 to 77 °C | Cc1noc(-c2ccc(Br)c(C)c2)n1
169 to 172 °C | COC(=O)c1cc(C#N)cn1CC(=O)c1ccccc1
120 to 126 °C | NC(=O)c1ccc(CN2CCN(C(=O)c3cc(C(F)(F)F)cc(C(F)(F)F)c3)[C@H](Cc3c[nH]c4ccccc34)C2)cc1
120 to 123 °C | COc1ccc([C@H]2O[C@](O[Si](C)(C)C)(C(F)(F)F)C(C)(C)N2C(=O)c2ccccc2)cc1 (racemic)
137 to 138 °C | Cc1cccc(NC#N)c1N1CCOCC1
147 to 149 °C | COc1ccc2[nH]cc(C=C3OC(=O)N(Cc4cc(C(F)(F)F)cc(C(F)(F)F)c4)C3=O)c2c1
231 to 232 °C | Cn1c(C#N)c(-c2ccc(F)cc2)c2cccnc2c1=O
223 to 226 °C | CCn1nc(C(F)(F)F)cc1NC(=O)C1C(C)=CC=CC1(C(N)=O)C(C)C (stereo not given)
154 to 156 °C | CCOC(=O)C(=CNCc1cnsn1)C(=O)c1cc(F)c(F)c(F)c1F
118 to 119 °C | CC(C(=O)c1ccc(F)cc1F)c1ncccn1 (stereo not given)
122 to 123 °C | CC(C)n1c(=O)oc2cc([N+](=O)[O-])cc(F)c21
92 °C | CS(=O)c1cc(-c2ccc(Oc3ccccc3)cc2)nn1C(N)=O (stereo not given)
99 to 100 °C | CCOC(=O)c1cn(-c2ccc(C(F)(F)F)cn2)nc1C1CCCCC1
84 to 89 °C | OC(CNC1CCc2ccccc2C1)COc1cccc(C(F)(F)F)c1 (stereo not given)

melting point | SMILES
167 to 168 °C | CC(NC(=O)c1c(F)cccc1F)C(F)(F)F (stereo not given)
75 to 80 °C | COC(=O)c1cc2c(C)ccc(C)c2n1C(=O)OC
84 to 85 °C | COC(=O)c1cc2cc(OC(F)F)ccc2nc1C(=O)OC
126 to 128 °C | Cn1c(C(F)(F)F)cc(=O)n(-c2cc(OCc3ccccc3F)c(Cl)cc2F)c1=O
136 to 137 °C | Cc1cc(OCc2oc(-c3ccc(C(F)(F)F)cc3)nc2C)ccc1OCC(=O)O
248 to 250 °C | O=C(O)c1ccc2c(c1)S(=O)(=O)c1ccccc1CC2
99 to 101 °C | COC(=O)c1sc(Cl)cc1N
247 to 248 °C | NC(=O)C1CCc2[nH]c3ccc(Cl)cc3c2C1 (stereo not given)
189 to 192 °C | CC(=O)NCC1CC1c1c(C#N)ccc2nn(C)cc12 (stereo not given)
258 to 260 °C | N#Cc1ccc(CN2c3ccc(Cl)cc3C=C(C(=O)O)C2C(F)(F)F)cc1 (stereo not given)
101 °C | COc1ccc2c(c1)C(C(=O)O)CC2 (stereo not given)
61 to 64 °C | CCOC(=O)C1(C(=O)Nc2ccc(Br)cc2C)CCC1
222 to 224 °C | O=C(Nc1ccc2ccc(-c3ccc(Cl)cc3)nc2n1)c1cccc(Cl)c1
139 to 140 °C | O=c1cc(CO)oc2cc(S)ccc12
190 °C | N[C@@H](Cc1c[nH]c2ccccc12)c1nc2c(C(F)(F)F)cccc2c(O)c1C(=O)Nc1nccs1

The remaining lines, values behind:

SMILES | melting point
Cc1ccc(C2=C(C(=O)O)N(CC(C)C)Cc3ccc(OCc4ccccc4)cc32)cc1 | 153 to 154 °C
COCCOn1nnc2ccc(Cn3ccnc3)cc21 | 77 °C
N=C(N)Nc1ccc(S(=O)(=O)N2CCOCC2)cc1 | 102 to 105 °C
CN1C(=O)C(C)(C)Oc2ccc(C3=NNC(=O)CC3)cc21 | 169 to 171 °C
Nc1nc2c(c(=O)[nH]1)n(CC(=O)c1ccc(Cl)cc1)c(=O)n2C1OC(CO)C(O)C1O (stereo not given) | > 230 °C
COc1ccc(-c2cc(C)cn2-c2ccc(S(N)(=O)=O)cc2)cc1 | 163 to 166 °C
CN(C)C(=O)C(C#N)=C(OC(=O)c1ccc(Cl)cc1[N+](=O)[O-])c1ccc(Cl)cc1[N+](=O)[O-] | 137 to 146 °C
COC12CC(COS(=O)(=O)c3ccc(C)cc3)CN(C)C1Cc1cn(C(C)(C)C)c3cccc2c13 (stereo not given) | 150 to 152 °C
Cc1cc(C(=O)N2Cc3cccn3Cc3ccccc32)ccc1C1=CCCc2ccccc21 | 108 °C
CCC(C)N1CN(C)C(=O)N(c2nc3c(s2)C(=O)CC(C)(C)C3)C1 (stereo not given) | 126 to 127 °C
CCN(CC)CCOc1ccc2c(c1)C(=O)c1ccc(OCCN(CC)CC)cc1C2=O | 169 to 170 °C
N#CC=C1CCN(c2ccc(N3C[C@@H](Cn4cc(CCC(=O)O)nn4)OC3=O)cc2)CC1 | 120 to 122 °C
CCCCc1nc(Cl)c(CO)n1Cc1ccc(-c2ccccc2-c2nnnn2C(c2ccccc2)(c2ccccc2)c2ccccc2)cc1 | 95 to 98 °C
NC(=S)N1CCN(c2ccc(SC(CCc3ccc(Cl)cc3)Cn3ccnc3)cc2)CC1 (stereo not given) | 130 to 133 °C
CC1(C2CCCC2)Cc2cc(OCC#N)c(Cl)c(Cl)c2C1=O (stereo not given) | 129 to 131 °C
COc1cc2c(cc1-c1nc3cc(-c4ccccc4)ccc3o1)oc1ccccc12 | 155 to 160 °C
Cc1cc(SC(C)C)c(NC(=O)CCCSc2nc3ccccc3o2)c(SC(C)C)n1 | 128 to 129 °C
CC(C)(C)c1cc(C2=NOC(CCOc3ccc([N+](=O)[O-])cc3)C2)cc(C(C)(C)C)c1O (stereo not given) | 151 to 153 °C
O=c1nc(N2CCN(c3ccc(Cl)cc3)CC2)sc2c([N+](=O)[O-])cc([N+](=O)[O-])cc12 | 178 to 180 °C
O=S1(=O)c2cccc3cccc(c23)N1CC(O)CN1CCN(c2ccc(F)cc2)CC1 (stereo not given) | 130 °C
O=[N+]([O-])CC(O)c1nn(Cc2ccccc2)c2ccccc12 (stereo not given) | 100 to 101 °C
C=CCCc1cccc2c1C(=O)C1=C(CCCC1)C2=O | 111 to 113 °C

SMILES | melting point
CCc1c(N)c(C(N)=O)nn1C1CN(CC)C1 | 155 to 157 °C
CCOc1ccc([N+](=O)[O-])c(NC23CC4CC(CC(C4)C2)C3)c1 | 147 °C
CC(C)(C)c1cc(N(C(=O)CCC(=O)O)c2ccc(OC(=O)c3ccccc3)cc2)cc(C(C)(C)C)c1O | 131 to 132 °C
NC[C@@H]1CN(c2nc3c(cc2F)c(=O)c(C(=O)O)cn3C2CC2)C[C@@H]1Cl (relative stereo) | 174 to 177 °C
COc1ccccc1-n1c(-c2cc(-c3ccccc3)c(N3CCOCC3)s2)nc2ccccc2c1=O | 152 to 154 °C
COc1ccc(CNC(=O)N2CCN(c3ncnc4cc(OC)c(OC)cc34)CC2)cc1 | 147 to 148 °C
CC(=O)Nc1nc2c(s1)-c1c(cnn1C(N)=O)CC2 | 265 to 270 °C
CCOC(=O)c1cn(C2CC2)c2c(Cl)c(F)c(F)c(C)c2c1=O | 153 to 154 °C
C[C@@H](Cn1ncc2ccc3oc(C(=O)OCc4ccccc4)cc3c21)NC(=O)OCc1ccccc1 | 140 to 141 °C
COc1ccc2c(c1)C1=C(SCC3(CCN(CC(O)COc4ccc(C(C)(C)C)cc4)CC3)O1)C(=O)C2=O (stereo not given) | 153 to 156 °C
O=C1Nc2ccc(Br)cc2C2(c3ccccn3)OCCN12 (stereo not given) | 241 to 242 °C
CC12CCC(OS(=O)(=O)C(F)(F)F)=CC1=CCC1C2CCC2(C)C(C(=O)O)CCC12 (stereo not given) | 140 to 150 °C
COc1cc(C)cc(OC)c1C1=NC(NC(=O)C(N)Cc2ccccc2)C(=O)N(C)c2ccccc21 (stereo not given) | 165 °C
CC(C)c1cc(O)cc2c1C(=O)N(CCl)S2(=O)=O | 149 to 150 °C
CCCNC(=O)Nc1ccc(C(=O)c2c(C)c(OCCOC)c3ccccn23)cc1C(=O)OC | 125 °C
CCn1nc2c(N)nc3ccccc3c2c1CC1(F)CCN(C(C)=O)CC1 | 228 to 230 °C
Cn1cc(-c2cccc(N3Cc4cc(C(C)(C)C)ccc4C3=O)c2CO)cc(Nc2ccc(C3CNC3)cn2)c1=O | 185 to 186 °C
O=C(Nc1ccc(CN2C(=O)[C@H]3CCC[C@H]3N(C(=O)CCl)c3ccccc32)cc1)Oc1ccccc1 (relative stereo) | 207 to 210 °C
CC(C)NCC(O)COc1ccc(OCCOCC2CCC2)cc1 (stereo not given) | 56 °C
CCOC(=O)N1CCN(C2=Nc3ccc(Br)c4cccc2c34)CC1 | 170 to 174 °C
CCC(=O)C(Cc1cc(C#N)cc(C#N)c1)C(=O)CC | 67 to 69 °C
CC1(C)CCc2ccccc2C1n1cncc1C1SCCS1 (stereo not given) | 109 °C

SMILES | melting point
CC(=O)OC1CSC(Oc2cccc(-c3cnoc3C)c2)C(OC(C)=O)C1OC(C)=O (stereo not given) | 60 °C
CS(=O)c1ccc2ncn(C=CC(=O)O)c(=O)c2c1 (stereo not given) | 275 to 276 °C
O=C(NCc1ccc(F)cc1)Nc1ccc(CN2C(=O)[C@H]3CCC[C@H]3N(C(=O)CN3C(=O)c4ccccc4C3=O)c3ccccc32)cc1 (relative stereo) | 154 to 156 °C
COC(=O)c1ccc(C2(c3ccc4c(c3)C3(C)C5(C)CCC(C5)C3(C)O4)OCCO2)cc1 (stereo not given) | 136 to 137 °C
C=CC(=O)Cc1ccc(-c2ccc(CC(=O)C=C)cc2)cc1 | 61 to 62 °C
COc1ccc(C2(c3ccc(OC)c(OC)c3)CCC(=O)O2)cc1OC | 133 to 134 °C
Cc1cc(OCCCN2CCC[C@H]2C)ccc1C1=NNC(=O)CC1 | 121 to 123 °C
C#CCOc1cccc(-c2nc3ncccc3[nH]2)c1OC | 262 °C
CCCc1nc2c(N)nc3cc(Oc4cccc(NCC)c4)ccc3c2n1CC(C)C | 168 to 174 °C
COc1ccc2c(c1OC)C1(COc3cc4c(cc31)OCCO4)C(=O)N2Cc1ccc(C(F)(F)F)o1 (stereo not given) | 62 to 65 °C
CCOP(=O)(OCC)C(Nc1ccccn1)P(=O)(OCC)OCC | 63 to 66 °C
CC12CCC3c4ccc(C(=O)O)cc4CCC3C1CCC2C(=O)CCc1ccc(O)cc1 (stereo not given) | 197 °C
CC(=O)NC1CCN(Cc2ccc(CCn3cnc4cc(-c5ccc(Cl)cc5)sc4c3=O)cc2)C1 (stereo not given) | 196 to 198 °C
N#Cc1cccc(Oc2ccnc(Cl)c2)n1 | 114 °C
Cc1cc2c(=O)c(-c3nnnn3C)cn(C)c2cc1C | 245 to 246 °C
CCCCCCCCOc1ccc(-c2ccc(OCCCCCCCC)c(F)c2)cc1F | 84 °C
CCOC(=O)N1C=CC(c2c(-c3ccccc3)nn3ccccc23)C=N1 (stereo not given) | 173 to 174 °C
COC(=O)c1ccc(CCSC(C)=O)s1 | 67 to 68 °C
Nc1cc(NCCC2CCCCC2)nc2c1ncn2C1OC(CO)C(O)C1O (stereo not given) | 194 to 195 °C
CCN(C(=O)C#Cc1ccccc1)c1ccccc1C1CCCCN1C (stereo not given) | 104 to 106 °C
